Results from US12594349B2, “Compositions and methods for the targeting of PCSK9” (Scribe Therapeutics Inc., priority 2022, dated 2026).
Where two headings read alike, the source gives them in different places.

Experiments:
human PCSK9 locus = experiment: Secreted PCSK9 by ELISA in Huh7 cells transfected with mRNA and gRNA; format: cell-based; conditions: Huh7 cells; for Secreted PCSK9: 6 days post-transfection, normalized to total cell count; for Percent reduction in PCSK9 secretion / Average percent reduction in PCSK9 secretion: LTRP5-ADD-ZIM3 mRNA; for Percent reduction in PCSK9 secretion: day 6, relative to non-targeting gRNA control; for Average percent reduction in PCSK9 secretion: day 6, averaged from the two doses
Description: To assess PCSK9 secretion, seeded Huh7 cells were transfected with mRNA encoding a catalytically-active CasX 676, dXR1, or LTRP5-ADD-ZIM3 and a gRNA with scaffold 316 and spacer targeting either the B2M or PCSK9 locus. Media supernatant was harvested at 6, 18, 36, and 87 days post-transfection to assess level of PCSK9 secretion by ELISA. Levels of PCSK9 secretion were normalized to total cell count. As an additional control, PCSK9 secretion was also measured in the media supernatant harvested from wells containing untreated, naïve cells.
The following three human hepatocyte cancer cell lines were used in this experiment: HepG2 cells, Hep3B cells, and Huh7 cells. ˜15,000 cells of each cell line were seeded per well; the next day, seeded cells were transfected with mRNA encoding a catalytically-active CasX 676, dXR1, or LTRP5-ADD-ZIM3 and a gRNA with scaffold 316 and spacer targeting either the B2M or PCSK9 locus (see Table 23 for specific spacers and sequences). Media supernatant was harvested at 4 days post-transfection to assess level of PCSK9 secretion by ELISA, and levels of PCSK9 secretion were normalized to total cell count and illustrated in FIGS. 11A-11C. Culturing of treated Huh7 cells continued, and media supernatant was harvested at 14 and 27 days post-transfection for measuring PCSK9 secretion by ELISA. As an additional experimental control, PCSK9 secretion was also measured in the media supernatant harvested from wells containing untreated, naïve cells.
To assess PCSK9 secretion, seeded Huh7 cells were co-transfected with mRNA encoding for LTRP5-ADD-ZIM3 and a gRNA with scaffold 316 and spacer targeting the PCSK9 locus using Lipofectamine™ 3000. Two doses of total RNA input at a 2:1 mass ratio of mRNA to gRNA were used for screening: 50 ng mRNA:25 ng gRNA and 25 ng mRNA:12.5 ng gRNA. Media supernatant was harvested at 6 days post-transfection to assess level of PCSK9 secretion by ELISA (Table 74). Levels of PCSK9 secretion were normalized to total cell count. As an additional control, PCSK9 secretion was also measured in the media supernatant harvested from cells transfected with mRNA encoding for mScarlet.

PCSK9 locus = experiment: RNA-seq, normalized PCSK9 read counts in transfected Huh7 cells; format: cell-based, human; conditions: Huh7, mRNA + gRNA scaffold 316 v1, 6 and 26 days post-transfection
Text: (§1) Seeded Huh7 cells were transfected with mRNA encoding a catalytically-active CasX 676, dXR1, or LTRP5-ADD-ZIM3 and a gRNA with scaffold 316 and a spacer targeting the PCSK9 locus. Cells were harvested at 6 and 26 days post-transfection and subsequently lysed and stored in DNA/RNA Shield (Zymo Research). As an additional control, untreated, naïve cells were also harvested. The collected samples were subjected to gDNA/RNA extraction using the Quick-DNA/RNA Miniprep Plus kit (Zymo Research). RNA samples were used for total RNA sequencing (RNA-seq), which was performed by a third-party. Raw FASTQ files were received and processed with FASTQC, and adapters were trimmed using Trim Galore. Transcript expression was then quantified against the hg38 genome using Salmon to generate normalized counts for each gene (transcripts per million, or TPM). Differential expression analysis was performed using DESeq2. Genes with fewer than 10 counts in all samples were omitted from analysis, and all pairwise comparisons (e.g., differential gene expression analyses between untreated and treated conditions at the two individual timepoints) were done with significance thresholds of |log 2FC|>2 and adjusted p-value<0.001.

Huh7 cells = experiment: RNA-seq, differentially regulated off-target genes in transfected Huh7 cells; format: cell-based, human; conditions: Huh7, 6 and 26 days post-transfection, |log2FC|>2 and adjusted p-value<0.001
Text: as §1

B2M locus = format: cell-based; conditions: for % HLA-negative cells (mean): HEK293T cells, gRNA with B2M-targeting spacer 7.37; for B2M repression compared with LTRP5-ZIM3: HEK293T, LTRP5 constructs without ADD domain, scaffold 316 spacer 7.165, days 6/7 to 26/27
HBEGF = format: cell-based, human
mouse PCSK9 locus = experiment: Intracellular PCSK9 staining by flow cytometry in Hepa1-6 cells lipofected with mRNA and gRNA; format: cell-based; conditions: Hepa1-6, dXR1 mRNA, day 6
Description: Seeded Hepa1-6 cells treated with the NATE™ inhibitor were lipofected with 300 ng of mRNA encoding dXR1 or LTRP1-ZIM3 (Table 12) and 150 ng of a PCSK9-targeting gRNA (Table 14). Seven different gRNAs spanning the promoter region of the mouse PCSK9 locus were tested, in addition to a non-targeting sequence complementary to the human PCSK9 gene (Table 14). Cells were harvested at 6, 13, and 25 days after transfection to measure intracellular levels of the PCSK9 protein using an intracellular flow cytometry staining protocol. […]
Seeded Hepa1-6 cells treated with the NATE™ inhibitor were lipofected with 300 ng of mRNA encoding LTRP1-ZIM3, LTRP5-ZIM3, catalytically-active CasX 491, or dCas9-ZNF10-DNMT3A/3L, and 150 ng of PCSK9-targeting gRNA (Table 14). Intracellular levels of PCSK9 protein were measured at 7, 14, 21, 36, and 71 days post-transfection using an intracellular staining protocol as described earlier for experiment #1.
Transfection of mRNA and gRNA into Hepa1-6 cells and intracellular PCSK9 staining were performed as described in Example 2. […] Intracellular levels of PCSK9 protein were measured at various timepoints, up to day 53 post-transfection using an intracellular staining protocol as described earlier in Example 2. […]

[1] = LTRP5-ADD-ZIM3 mRNA + gRNA scaffold 316, 25 ng mRNA:12.5 ng gRNA
[2] = LTRP5-ADD-ZIM3 mRNA + gRNA scaffold 316, 50 ng mRNA:25 ng gRNA

## TG-06-133 (guide AUGGUAGGCACAAGCUCAGC; listed as RNA, chemistry not given here)
Human PCSK9 locus; [1]
  Secreted PCSK9: 42.13 ng/mL
Human PCSK9 locus; [2]
  Secreted PCSK9: 29.45 ng/mL
Human PCSK9 locus; 25 ng mRNA:12.5 ng gRNA
  Percent reduction in PCSK9 secretion: 40.86%
Human PCSK9 locus; 50 ng mRNA:25 ng gRNA
  Percent reduction in PCSK9 secretion: 64.21%
Human PCSK9 locus
  Average percent reduction in PCSK9 secretion: 52.53%
PCSK9 locus
  PCSK9 expression by RNA-seq: durably repress PCSK9 expression
Huh7 cells
  differentially regulated off-target genes: lowest number of differentially regulated off-target genes

## TG-06-154 (guide AGGGUGUGGGUGCUUGACGC; listed as RNA, chemistry not given here)
Human PCSK9 locus; [1]
  Secreted PCSK9: 24.48 ng/mL
Human PCSK9 locus; [2]
  Secreted PCSK9: 6.87 ng/mL
Human PCSK9 locus; 25 ng mRNA:12.5 ng gRNA
  Percent reduction in PCSK9 secretion: 65.64%
Human PCSK9 locus; 50 ng mRNA:25 ng gRNA
  Percent reduction in PCSK9 secretion: 91.65%
Human PCSK9 locus
  Average percent reduction in PCSK9 secretion: 78.64%
PCSK9 locus
  PCSK9 expression by RNA-seq: durably repress PCSK9 expression
Huh7 cells
  differentially regulated off-target genes: higher number of differentially regulated off-target genes

## TG-06-167 (guide CACUGAAUAGCGCAGCCGCA; listed as RNA, chemistry not given here)
Human PCSK9 locus; [1]
  Secreted PCSK9: 66.61 ng/mL
Human PCSK9 locus; [2]
  Secreted PCSK9: 39.55 ng/mL
Human PCSK9 locus; 25 ng mRNA:12.5 ng gRNA
  Percent reduction in PCSK9 secretion: 6.51%
Human PCSK9 locus; 50 ng mRNA:25 ng gRNA
  Percent reduction in PCSK9 secretion: 51.93%
Human PCSK9 locus
  Average percent reduction in PCSK9 secretion: 29.22%
PCSK9 locus
  PCSK9 expression by RNA-seq: durably repress PCSK9 expression
Huh7 cells
  differentially regulated off-target genes: higher number of differentially regulated off-target genes

B1: dCasX491: catalytically-dead CasX variant, SEQ ID NO: 4 (protein)
chain: QEIKRINKIRRRLVKDSNTKKAGKTGPMKTLLVRVMTPDLRERLENLRKKPENIPQPISNTSRANLNKLLTDYTEMKKAILHVYWEEFQKDPVGLMSRVAQPASKKIDQNKLKPEMDEKGNLTTAGFACSQCGQPLFVYKLEQVSEKGKAYTNYFGRCNVAEHEKLILLAQLKPEKDSDEAVTYSLGKFGQRALDFYSIHVTKESTHPVKPLAQIAGNRYASGPVGKALSDACMGTIASFLSKYQDIIIEHQKVVKGNQKRLESLRELAGKENLEYPSVTLPPQPHTKEGVDAYNEVIARVRMWVNLNLWQKLKLSRDDAKPLLRLKGFPSFPLVERQANEVDWWDMVCNVKKLINEKKEDGKVFWQNLAGYKRQEALRPYLSSEEDRKKGKKFARYQLGDLLLHLEKKHGEDWGKVYDEAWERIDKKVEGLSKHIKLEEERRSEDAQSKAALTDWLRAKASFVIEGLKEADKDEFCRCELKLQKWYGDLRGKPFAIEAENSILDISGFSKQYNCAFIWQKDGVKKLNLYLIINYFKGGKLRFKKIKPEAFEANRFYTVINKKSGEIVPMEVNFNFDDPNLIILPLAFGKRQGREFIWNDLLSLETGSLKLANGRVIEKTLYNRRTRQDEPALFVALTFERREVLDSSNIKPMNLIGVARGENIPAVIALTDPEGCPLSRFKDSLGNPTHILRIGESYKEKQRTIQAKKEVEQRRAGGYSRKYASKAKNLADDMVRNTARDLLYYAVTQDAMLIFANLSRGFGRQGKRTFMAERQYTRMEDWLTAKLAYEGLSKTYLSKTLAQYTSKTCSNCGFTITSADYDRVLEKLKKTATGWMTTINGKELKVEGQITYYNRYKRQNVVKDLSVELDRLSEESVNNDISSWTKGRSGEALSLLKKRFSHRPVQEKFVCLNCGFETHAAEQAALNIARSWLFLRSQEYKKYQTNKTTGNTDKRAFVETWQSFYRKKLKEVWKPAV
B2M locus; 50 days post-transfection
  % HLA-negative cells (mean): 0.49%
B2M locus; 73 days post-transfection
  % HLA-negative cells (mean): 0.83%

B2: DOMAIN_26749: repressor domain derived from the king cobra, Ophiophagus hannah; SEQ ID NO: 135 (protein)
chain: STPVTFEDVVVYFTAAEWVHLTNWQRDFYQAVMMETYELVASVAGDGVPMAEDEEGGVERPVWQYIPRGKRRRKTPQPRAD
modifications: Ophiophagus hannah
B2M locus
  B2M repression compared with LTRP5-ZIM3: most effective
HBEGF; HEK293T, dCasX491 fusion, scaffold 174 spacer 34.28, 2 ng/mL diphtheria toxin for 48 hours
  log 2(fold change) of abundance before and after selection: highest log 2 (fold change)

B3: DOMAIN_29304: one of the top nine most effective repressor domains (protein, listed as Peromyscus maniculatus)
chain: VTYNDVHVDITQEEWALMDPSQRNLYKDVMVETYMNLTAIGYNWENLEVEEPCQNPLKHGRHERPHTGEKPYEYNQCGKAFAQP
B2M locus
  B2M repression compared with LTRP5-ZIM3: most effective
HBEGF; fold change in abundance of each domain in the library before and after diphtheria toxin selection, dXR repression of the HBEGF gene, criteria p-value <0.01 and log2(fold change) >2
  Log2 (fold change): 4.0496

B4: 27.100 (nucleic acid)
guide: ACUUUGAGAGCCAUCACCAGCGACUAUGUCGUAGUGGGUAAAGCUCCCUCUUCGGAGGGAGCAUCAAAGCUCUCUCUUUCUGAGGCmU*mA*mG
modifications: as printed in the source, key not given here
Mouse PCSK9 locus
  degree of repression with dXR1 mRNA compared with LTRP1-ZIM3 mRNA: less substantial
